Consider 23 compounds from patent US7205285B2, “Acyl phosphonate inhibitors of β-lactamases” (Methylgene, Inc., priority 1997, dated 2007).

Bounds are passed on as bounds.

What is called IC50 is the concentration that inhibits the measured activity by half. The low end stands for higher potency, the high end for lower potency.

The target of series [1] is T1, Enterobacter cloacae P99 β-lactamase (Enterobacter cloacae, UniProt P05364).
T1 construct: purchased Porton Down, Wiltshire, U.K
The series is classed as biochemical. The conditions noted are these: values in parentheses, second order rate constant for inhibition. As to the method: To evaluate the inhibitors and the methods of the invention, representative inhibitors preparations were tested using class A (TEM-2 plasmid TEM)) β-lactamase and class C (Enterobacter cloacae P99 β-lactamase) β-lactamases (Porton Down, Wiltshire, U.K.) as well as representative DD-peptidases/carboxydases (e.g., Streptomyces R61 DD-peptidases) as the assayed enzyme.
Steady state kinetic parameters were directly obtained for representative inhibitors with the P99 β-lactamase with TEM β-lactamase by standard methods (e.g., Wilkinson, Biochem J. 80:324–332 (1989)) from spectrophotometric initial velocity measurements. Kinetic parameters were also obtained for DD-peptidase as the assayed enzyme, according to standard methods using hyppuryl-DL-phenyl-lactate (a known DD-peptidase substrate) (e.g. Govardhan and Pratt, Biochemistry 26:3385–3395 (1987)). The concentration of stock enzyme solutions were determined spectrophotometrically (e.g., Xu, et al., Biochemistry 35:[…] (1996)).
Representative class C and a class A β-lactamases were inhibited by representative inhibitors of Formulae I and II in a time-dependent fashion as described by the relation:
Representative inhibitors of the invention having Formula I may act by forming a covalent bond between β-lactamases and the inhibitor (i.e., irreversible inhibition). This type of inhibition is therefore time dependent. It is distinguished from reversible inhibition in so far that the backward reaction is extremely slow. […] Thus, irreversible inhibition is measured by how fast the event takes place (rate constant ki). Thus, inhibitory efficiency is expressed by large ki values.
Representative inhibitors of Formula I may also act by forming a transient acyl-enzyme intermediate. Inhibition results from a slow turn over, (de-acylation) of the intermediate.
In Table 3, kcat/km values are presented in plain text, with ki values for representative inhibitors appearing in parentheses. […]

Series [2] concerns the target TEM-2 plasmid (TEM) β-lactamase (Escherichia coli, UniProt P62593, Q37K). The series is classed as biochemical. The conditions noted are these: values in parentheses.
Series [3] in a line: Spontaneous hydrolysis in neutral aqueous solution. Conditions: for spontaneous hydrolysis, in words: neutral aqueous solution, relative to most compounds of the invention. The series is classed as physicochemical. On the procedure:
The cyclic phosphoryl chloride (500 mg; 2.3 mmol) was suspended in 60 mL of anhydrous acetonitrile (Aldrich, Sure/Seal) and water (41 μL, 2.3 mmol) added with magnetic stirring. The mixture was then gently warmed until the crystals of the starting material disappeared (ca. 5 min.). Two molar equivalents of redistilled dicyclohexylamine (913 μL) were then added. The immediately precipitating solid ([…]) was removed by vacuum filtration and the remaining solvent by rotary evaporation.

Series [4] has as its system Staph. Aureaus. The series is described as follows: Microbiological testing: potentiation of β-lactam antibiotic. Conditions: Piperacillin, compound at 100 μg/mL. The class given is cell-based. An excerpt:
(§1) To test the inhibitors of the invention, a wide range of organisms are used to assess compounds according to the invention; both as antibiotics and as β-Lactamase inhibitors: Initial screening for antibiotic activity utilizes penicillin sensitive S. aureus [ATTC# 25923], ampicillin sensitive H. influenzae [ATCC#10211] and clinical laboratory isolates of ampicillin sensitive E. faecalis and H. influenzae, and non-resistant P. aeruginosa. Initial studies utilize, in microtiter wells, 1 microgram of compound in 10 microliters diluted stock solution, 41,100 CFU of bacteria in 10 microliters broth solution and 80 microliters CAMHB. The count verification well contains 10 microliters CAMHB in place of the test compound. […] Microbiological and enzymatic testing is carried on duplicate plates with negative control plates.
(§2) Compounds were tested at a concentration of 100 μg/mL.
(§3) In Table 5, the microorganism tested against is shown in italics, while the antibiotic agent used is shown in plain text. […] When determined, the number in parentheses indicates the fold reduction in the MIC of the antibiotic agent when measured in the presence of the inhibitor of the invention.

The test system of series [5] is Ent. Cloacae. The description is as above. The series is classed as cell-based. Conditions: compound at 100 μg/mL.
Source text: as §1, §2, §3

Series [6] deals with Haemophilus Influenzae. The series is described as above. The series is classed as cell-based. The conditions noted are these: Ticarcillin, compound at 100 μg/mL.
Source text: as §1, §2, §3

Series [7] concerns the target T1, Enterobacter cloacae P99 β-lactamase. The series is described as follows: Inhibition of P99 β-lactamase, nitrocefin assay (IC50). The series is classed as biochemical. Conditions: nitrocefin substrate, 20 mM MOPS pH 7.50. As to the method:
The enzyme (Enterobacter cloacae P99 β-lactamase) was dissolved to a concentration of 1 mg/mL in 20 mM MOPS buffer at pH 7.50, and then diluted 200-fold in the same buffer containing 0.1% BSA. The commercially available substrate nitrocefin was added as a 100 μM stock solution in 20 mM MOPS buffer, and inhibitors were also added as solutions in MOPS buffer. In a typical assay the following amounts were used: 300 μL of nitrocefin, 10 μL of P99 β-lactamase, x μL of inhibitor, and […] of MOPS buffer. Enzyme activity was measured at 25 EC, and the reaction was monitored spectrophotometrically at 482 nm. IC50 values were determined from the dose-response plots of the initial reaction rate vs. inhibitor concentration.

As to `O=C(OP(=O)(O)Oc1ccc2ccccc2c1)c1ccccc1` [Compound XXXI], the ki in series [1] was no more than 1 s⁻¹ M⁻¹.
Same read-out and setting: under `COc1ccccc1C(=O)OP(=O)(O)Oc1ccccc1` [Compound XXIX] stands 3.6 ± 0.4 s⁻¹ M⁻¹; under `O=C(OP(=O)(O)Oc1ccccc1)c1ccc(-c2ccccc2)cc1` [Compound XXVII], no more than 3 s⁻¹ M⁻¹.
Consider `O=C(OP(=O)(O)OC(=O)c1ccccc1)c1ccccc1` [XIV, sodium dibenzoyl phosphate], for which the ki in series [2] is recorded as 0.120(14.3) s^−1 M^−1.
With `O=C(Cc1ccccc1)NCC(=O)OP(=O)(O)Oc1ccccc1` [XXXII], in series [3], the “spontaneous hydrolysis, in words” value is “more rapidly hydrolyzed”.
Take `O=C1C=C(c2ccccc2)OP(=O)(O)O1` [Compound XVI]: in series [4], the “fold reduction in the MIC of the antibiotic agent” value is 2 fold.
For `CCCCCCP(=O)(O)OC(=O)c1ccccc1` [Compound XXII], the ki in series [1] is 0.0226(11.1 ± 0.1) s^−1 M^−1.
Still for that read-out and setting: under `O=C(OP(=O)(O)Oc1ccc2ccccc2c1)c1cc2ccccc2s1` [Compound XXX] stands 1813 ± 3 s⁻¹ M⁻¹; under `Cc1cccc(C)c1C(=O)OP(=O)(O)Oc1ccccc1` [Compound XXVIII], “(20.9 ± 1.5) s^−1 M^−1”; under `O=C(OP(=O)(O)c1ccc2ccccc2c1)c1ccccc1` [Compound XX], 0.0551(115 ± 5) s^−1 M^−1.
`O=C(/C=C/c1ccccc1)OP(=O)(O)Oc1ccccc1` [Compound XXV]: in series [1], the ki is no more than 1 s⁻¹ M⁻¹.
In the case of `COP(=O)(O)OC(=O)c1ccccc1` [VIII], the “fold reduction in the MIC of the antibiotic agent” value was 2 fold in series [5] (Cefoxitin), 2 fold in series [5] (Ceftriaxone) and 0 fold in series [6].
As to `O=C(OP(=O)(O)Oc1ccccc1)c1ccccc1` [XIII, sodium benzoyl phenyl phosphate], the ki in series [2] was 0.001(0.2) s^−1 M^−1.
`O=C(OP(=O)(O)Oc1ccccc1)c1cc2ccccc2s1` [Compound XXVI]: the ki in series [1] is no more than 5 s⁻¹ M⁻¹.
In the case of `CCCCCCOP(=O)(O)OC(=O)c1ccccc1` [Compound XVII], the ki in series [1] is recorded as 0.125(≦1) s^−1 M^−1.
In the case of `O=C(NCP(=O)(O)OC(=O)c1ccccc1)OCc1ccccc1` [XXXIII], the ki result in series [1] was “(5.9 ± 0.3 × 10^4) s^−1 M^−1”; in series [2] it was “(130 ± 8) s^−1 M^−1”. Besides, the “spontaneous hydrolysis, in words” value in series [3] is recorded as “more rapidly hydrolyzed”.
`O=C(OP(=O)(O)Oc1cccc2ccccc12)c1ccccc1` [Compound XII] came in with an IC50 in series [7] of 8 µM.
On to `O=C(Cc1ccccc1)OP(=O)(O)Oc1ccccc1` [Compound X], for which the ki in series [1] was no more than 0.04 s⁻¹ M⁻¹. The same compound gave a half-inhibitory concentration (IC50) in series [7] of 30 µM. Further, the “spontaneous hydrolysis, in words” value in series [3] is listed as “shorter half-lives”.
As for `O=C(OP(=O)(O)Oc1ccc([N+](=O)[O-])cc1)c1ccccc1` [Compound XI], the ki in series [1] is no more than 2 s⁻¹ M⁻¹. In series [7], this compound came in with an IC50 of 39 µM.
Consider `O=C(OP(=O)(O)c1ccc([N+](=O)[O-])cc1)c1ccccc1` [Compound XVIII], for which, in series [1], the ki is on record as 0.0125(25 ± 3) s^−1 M^−1.
The same measure, in the same setting: the same measure for `O=C(OP(=O)(O)c1ccc(-c2ccccc2)cc1)c1ccccc1` [Compound XXI]: 0.117(89 ± 4) s^−1 M^−1; for `O=C(OP(=O)(O)c1cccc([N+](=O)[O-])c1)c1ccccc1` [Compound XIX]: 0.0179(65 ± 19) s^−1 M^−1.
On to `O=C1OP(=O)(O)Oc2ccccc21` [V, 1-hydroxy-4,5-benz-2.6-dioxaphosphorinanone-(3)-1-oxide], for which, in series [3] (20 mM MOPS, pH 7.5, 25° C.), the “rate of hydrolysis kobs” value turned out to be 1.7e-05 s⁻¹.
